Values of other authors, collected in patent US20220370615A1, “Prevention of Illicit Manufacture of Methamphetamine from Pseudoephedrine Using Food Flavor Excipients” (Satara Pharmaceuticals, priority 2021, published 2022).

Conditions: species and route not given

CC(=O)c1cnccn1 [Acetylpyrazine]
LD50: > 4000 mg/kg
